Assays:
Settings in all cases: Macaca mulatta
Rhesus monkey [1] = assay: Inhibition of CGRP-induced vasodilation in rhesus monkey at plasma concentration of 2 uM; assay type: functional
Rhesus monkey [2] = assay: Inhibition of CGRP-induced vasodilation in rhesus monkey
Rhesus monkey [3] = assay: Inhibition of CGRP-induced vasodilation in rhesus monkey at plasma concentration of 10 uM; assay type: functional

SMILES	inhibition at 2 µM (Rhesus monkey [1]) [%]	EC50 (Rhesus monkey [2]) [µM]	inhibition at 10 µM (Rhesus monkey [3]) [%]
Cc1cc(C)c2c(c1)n(CC(=O)Nc1ccc3c(c1)C[C@]1(C3)C(=O)NC(=O)N1C)c(=O)n2CC(=O)N(C)C	100	0.3	–
Cc1cc(C)c2c(c1)n(CC(=O)Nc1ccc3c(c1)C[C@]1(C3)C(=O)NC(=O)N1C)c(=O)n2C	–	10	50

— ChEMBL document CHEMBL1152143, “Potent benzimidazolone-based CGRP receptor antagonists” (Bioorg Med Chem Lett, 2008)
